The results in this text go back to patent US11142515B2, “Pyrazolyl-ureas as kinase inhibitors” (RESPIVERT LIMITED, priority 2014, dated 2021).

One test deals with T1, p38MAPKγ (MAPK12) (Homo sapiens, UniProt P53778).
T1 construct: purchased Life Technologies
T1 sequence (P53778 1-367): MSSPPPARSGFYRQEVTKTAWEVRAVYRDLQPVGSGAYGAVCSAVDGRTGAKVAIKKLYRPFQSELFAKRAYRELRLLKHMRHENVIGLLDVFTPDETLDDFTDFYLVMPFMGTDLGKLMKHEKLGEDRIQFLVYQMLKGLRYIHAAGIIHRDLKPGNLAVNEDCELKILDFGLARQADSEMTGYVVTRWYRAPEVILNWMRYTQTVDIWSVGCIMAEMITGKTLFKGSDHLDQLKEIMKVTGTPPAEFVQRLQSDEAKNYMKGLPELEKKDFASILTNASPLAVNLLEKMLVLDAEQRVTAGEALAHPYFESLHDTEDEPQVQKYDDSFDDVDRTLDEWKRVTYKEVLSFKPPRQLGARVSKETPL
As to the kind of experiment: p38 MAPKγ enzyme inhibition (Z-LYTE FRET). In kind it is biochemical. The conditions noted are these: Table 2B, unit inferred; read-out: p38 MAPKγ (Enzyme Profile). How it is done: (§1) The enzyme inhibitory activities of compounds disclosed herein were determined by FRET using synthetic peptides labelled with both donor and acceptor fluorophores (Z-LYTE, Life Technologies, Paisley, UK).
The inhibitory activities of compounds of the invention against p38MAPKγ (MAPK12: Life Technologies), were evaluated by determining the level of activation/phosphorylation of the target peptide. The enzyme (800 ng/mL, 2.5 μL) was incubated with the test compound (2.5 μL at either 40 μg/mL, 12 μg/mL, 4 μg/mL, 1.2 μg/mL, 0.4 μg/mL, 0.12 μg/mL, 0.04 μg/mL, 0.012 μg/mL, 0.004 μg/mL or 0.0012 μg/mL) for 2 h at RT. The FRET peptides (8 μM, 2.5 μL), and appropriate ATP solution (2.5 μL, 400 μM) were then added to the enzymes/compound mixtures and incubated for 1 h at RT. Development reagent (protease, 5 μL) was added for 1 h prior to detection in a fluorescence microplate reader (EnVision, Perkin Elmer).
(§2) In all cases, the site-specific protease cleaves non-phosphorylated peptide only and eliminates the FRET signal. Phosphorylation levels of each reaction were calculated using the ratio of coumarin emission (donor) over fluorescein emission (acceptor), for which low ratios indicate high phosphorylation and high ratios indicate low phosphorylation levels.

In test [1] the target is T2, p38 MAPKα isoform (MAPK14) (Homo sapiens, UniProt Q16539).
T2 construct: purchased Life Technologies
As to the kind of experiment: p38 MAPKα enzyme inhibition (Z-LYTE FRET). It is filed as biochemical. Particulars: Table 2B, unit inferred; read-out: p38 MAPKα (Enzyme Profile). How it is done:
as §1
The inhibitory activities of compounds of the invention against the p38 MAPKα isoform (MAPK14: Life Technologies), were evaluated indirectly by determining the level of activation/phosphorylation of the target peptide of the p38 MAPKα down-stream molecule, MAPKAP-K2. The enzyme (40 ng/mL, 2.5 μL) was incubated with the test compound (2.5 μL of either 40 μg/mL, 12 μg/mL, 4 μg/mL, 1.2 μg/mL, 0.4 μg/mL, 0.12 μg/mL, 0.04 μg/mL, 0.012 μg/mL, 0.004 μg/mL or 0.0012 μg/mL) for 2 h at RT. […] Development reagent (protease, 5 μL) was added for 1 h prior to detection in a fluorescence microplate reader (EnVision, Perkin Elmer, Waltham, Mass., USA).
as §2

T2 sequence (Q16539 whole entry, canonical isoform): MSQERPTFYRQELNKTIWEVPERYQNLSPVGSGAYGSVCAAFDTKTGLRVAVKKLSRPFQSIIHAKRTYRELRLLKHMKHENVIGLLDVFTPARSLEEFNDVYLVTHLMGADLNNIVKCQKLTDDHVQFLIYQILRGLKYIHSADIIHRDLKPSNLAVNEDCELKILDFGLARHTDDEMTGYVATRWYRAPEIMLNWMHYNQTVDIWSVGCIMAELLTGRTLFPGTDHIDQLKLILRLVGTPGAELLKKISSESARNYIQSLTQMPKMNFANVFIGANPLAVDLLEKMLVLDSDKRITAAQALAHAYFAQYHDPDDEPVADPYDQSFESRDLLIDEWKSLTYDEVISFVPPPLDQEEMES

As to `Cc1ccc(-n2nc(C(C)(C)C)cc2NC(=O)Nc2ccc(OCc3ccnc(Nc4cnc(C(=O)NCCO)cn4)c3)c3ccccc23)cc1` [Example 53, 5-((4-(((4-(3-(3-(tert-Butyl)-1-(p-tolyl)-1H-pyrazol-5-yl)ureido)naphthalen-1-yl)oxy)methyl)pyridin-2-yl)amino)-N-(2-hydroxyethyl)pyrazine-2-carboxamide], the IC50 amounted to 95 nM on p38MAPKγ (MAPK12) and 17 nM in test [1].
For `Cc1ccc(-n2nc(C(C)(C)C)cc2NC(=O)Nc2ccc(OCc3ccnc(Nc4cncc(N5CCCC5)n4)c3)c3ccccc23)cc1` [Example 55, 1-(3-(tert-Butyl)-1-(p-tolyl)-1H-pyrazol-5-yl)-3-(4-((2-((6-(pyrrolidin-1-yl)pyrazin-2-yl)amino)pyridin-4-yl)methoxy)naphthalen-1-yl)urea] the same measures were 151 nM and 15 nM.
For `COC1CCN(C(=O)c2cnc(Nc3cc(COc4ccc(NC(=O)Nc5cc(C(C)(C)C)nn5-c5ccc(C)cc5)c5ccccc45)ccn3)cn2)CC1` [Example 56] the same measures were 262 nM and 21 nM.
In the case of `COc1cc(-n2nc(C(C)(C)C)cc2NC(=O)Nc2ccc(OCc3ccnc(Nc4cnccn4)c3)c3ccccc23)ccc1C` [Example 57], the IC50 amounted to 229 nM at p38MAPKγ (MAPK12) and 15 nM in test [1].
In the case of `Cc1cccc(-n2nc(C(C)(C)C)cc2NC(=O)Nc2ccc(OCc3ccnc(Nc4cnc(C)c(C)n4)c3)c3ccccc23)c1` [Example 58], the IC50 at p38MAPKγ (MAPK12) was determined as 435 nM; in test [1], 18 nM.
For `Cc1ccc(-n2nc(C(C)(C)C)cc2NC(=O)Nc2ccc(OCc3ccnc(Nc4cnccn4)c3)c3ccccc23)cc1F` [Example 59] the same measures were 105 nM and 18 nM.
For the molecule `Cc1ccc(-n2nc(C(C)(C)C)cc2NC(=O)Nc2ccc(OCc3ccnc(Nc4cnc(C(=O)N5CCN6CCC[C@H]6C5)cn4)c3)c3ccccc23)cc1` [Example 275, (S)-1-(3-(tert-butyl)-1-(p-tolyl)-1H-pyrazol-5-yl)-3-(4-((2-((5-(octahydropyrrolo [1,2-a]pyrazine-2-carbonyl)pyrazin-2-yl)amino)pyridin-4-yl)methoxy)naphthalen-1-yl)urea], the IC50 at p38MAPKγ (MAPK12) turned out to be 129 nM.
`COCc1cccc(-n2nc(C(C)(C)C)cc2NC(=O)Nc2ccc(OCc3ccnc(Nc4cnc(CN5CCN(C)CC5)cn4)c3)c3ccccc23)c1` [Example 276, 1-(3-(tert-butyl)-1-(3-(methoxymethyl)phenyl)-1H-pyrazol-5-yl)-3-(4-((2-((5-((4-methylpiperazin-1-yl)methyl)pyrazin-2-yl)amino)pyridin-4-yl)methoxy)naphthalen-1-yl)urea]: the IC50 at p38MAPKγ (MAPK12) was 8.4 nM.
Take `Cc1ccc(-n2nc(C(C)(C)C)cc2NC(=O)Nc2ccc(OCc3ccnc(Nc4cnc(CN5CCN(C)CC5)cn4)c3)c3ccccc23)cc1` [Example 277, 1-(3-(tert-butyl)-1-(p-tolyl)-1H-pyrazol-5-yl)-3-(4-((2-((5-((4-methylpiperazin-1-yl)methyl)pyrazin-2-yl)amino)pyridin-4-yl)methoxy)naphthalen-1-yl)urea]: the IC50 at p38MAPKγ (MAPK12) amounted to 31 nM.
For `Cc1ccc(-n2nc(C(C)(C)C)cc2NC(=O)Nc2ccc(OCc3ccnc(Nc4cnc(C(=O)N[C@@H](C)CN5CCOCC5)cn4)c3)c3ccccc23)cc1` [Example 278, (S)-5-((4-(((4-(3-(3-(tert-butyl)-1-(p-tolyl)-1H-pyrazol-5-yl)ureido)naphthalen-1-yl)oxy)methyl)pyridin-2-yl)amino)-N-(1-morpholinopropan-2-yl) pyrazine-2-carboxamide], the IC50 at p38MAPKγ (MAPK12) came out at 197 nM.
For the molecule `Cc1ccc(-n2nc(C(C)(C)C)cc2NC(=O)Nc2ccc(OCc3ccnc(Nc4cnc(C(=O)NCCCN5CCOCC5)cn4)c3)c3ccccc23)cc1` [Example 279, 5-((4-(((4-(3-(3-(tert-butyl)-1-(p-tolyl)-1H-pyrazol-5-yl)ureido)naphthalen-1-yl)oxy)methyl)pyridin-2-yl)amino)-N-(3-morpholino-propyl)pyrazine-2-carboxamide], the IC50 on p38MAPKγ (MAPK12) amounted to 116 nM.
As for `Cc1ccc(-n2nc(C(C)(C)C)cc2NC(=O)Nc2ccc(OCc3ccnc(Nc4cnc(C(=O)NCCCN5CCN(C)CC5)cn4)c3)c3ccccc23)cc1` [Example 280, 5-((4-(((4-(3-(3-(tert-butyl)-1-(p-tolyl)-1H-pyrazol-5-yl)ureido)naphthalen-1-yl)oxy)methyl)pyridin-2-yl)amino)-N-(3-(4-methyl-piperazin-1-yl)propyl) pyrazine-2-carboxamide], the IC50 at p38MAPKγ (MAPK12) came out at 31 nM.
In the case of `Cc1ccc(-n2nc(C(C)(C)C)cc2NC(=O)Nc2ccc(OCc3ccnc(Nc4cnc(C(=O)NCC(C)(C)N5CCOCC5)cn4)c3)c3ccccc23)cc1` [Example 281, 5-((4-(((4-(3-(3-(tert-butyl)-1-(p-tolyl)-1H-pyrazol-5-yl)ureido)naphthalen-1-yl)oxy)methyl)pyridin-2-yl)amino)-N-(2-methyl-2-morpholinopropyl)pyrazine-2-carboxamide], the IC50 on p38MAPKγ (MAPK12) was 289 nM.
With `COCCN1CCC(NC(=O)c2cnc(Nc3cc(COc4ccc(NC(=O)Nc5cc(C(C)(C)C)nn5-c5ccc(C)cc5)c5ccccc45)ccn3)cn2)CC1` [Example 282, 5-((4-(((4-(3-(3-(tert-butyl)-1-(p-tolyl)-1H-pyrazol-5-yl)ureido)naphthalen-1-yl)oxy)methyl)pyridin-2-yl)amino)-N-(1-(2-methoxy-ethyl)piperidin-4-yl) pyrazine-2-carboxamide], on p38MAPKγ (MAPK12), the IC50 turned out to be 62 nM.
For the molecule `CCN1CCN(C(=O)c2cnc(Nc3cc(COc4ccc(NC(=O)Nc5cc(C(C)(C)C)nn5-c5cccc(COC)c5)c5ccccc45)ccn3)cn2)CC1` [Example 283, 1-(3-(tert-butyl)-1-(3-(methoxymethyl)phenyl)-1H-pyrazol-5-yl)-3-(4-((2-((5-(4-ethylpiperazine-1-carbonyl)pyrazin-2-yl)amino)pyridin-4-yl)methoxy)naphthalen-1-yl)urea], on p38MAPKγ (MAPK12), the IC50 was 35 nM.
Take `COCc1cccc(-n2nc(C(C)(C)C)cc2NC(=O)Nc2ccc(OCc3ccnc(Nc4cnc(C(=O)N5CCC(N(C)C)CC5)cn4)c3)c3ccccc23)c1` [Example 284, 1-(3-(tert-butyl)-1-(3-(methoxymethyl)phenyl)-1H-pyrazol-5-yl)-3-(4-((2-((5-(4-(dimethylamino)piperidine-1-carbonyl)pyrazin-2-yl)amino)pyridin-4-yl)methoxy)naphthalen-1-yl)urea]: the IC50 on p38MAPKγ (MAPK12) is 1.7 nM.
The same measure, in the same setting: with `Cc1ccc(-n2nc(C(C)(C)C)cc2NC(=O)Nc2ccc(OCc3ccnc(Nc4cncc(CN5CCOCC5)n4)c3)c3ccccc23)cc1` [Example 285, 1-(3-(tert-butyl)-1-(p-tolyl)-1H-pyrazol-5-yl)-3-(4-((2-((6-(morpholinomethyl)pyrazin-2-yl)amino)pyridin-4-yl)methoxy)naphthalen-1-yl)urea] the figure was 83 nM; with `Cc1ccc(-n2nc(C(C)(C)C)cc2NC(=O)Nc2ccc(OCc3ccnc(Nc4cncc(C5CCN(C)CC5)n4)c3)c3ccccc23)cc1` [Example 286, 1-(3-(tert-butyl)-1-(p-tolyl)-1H-pyrazol-5-yl)-3-(4-((2-((6-(1-methylpiperidin-4-yl)pyrazin-2-yl)amino)pyridin-4-yl)methoxy)naphthalen-1-yl)urea], 5.8 nM.
Same read-out and setting: with `Cc1ccc(-n2nc(C(C)(C)C)cc2NC(=O)Nc2ccc(OCc3ccnc(Nc4cnc(C(=O)NC(C)(C)CN5CCOCC5)cn4)c3)c3ccccc23)cc1` [Example 287, 5-((4-(((4-(3-(3-(tert-butyl)-1-(p-tolyl)-1H-pyrazol-5-yl)ureido)naphthalen-1-yl)oxy)methyl)pyridin-2-yl)amino)-N-(2-methyl-1-morpholinopropan-2-yl) pyrazine-2-carboxamide] the figure was more than 12800 nM; with `Cc1ccc(-n2nc(C(C)(C)C)cc2NC(=O)Nc2ccc(OCc3ccnc(Nc4cnc(C(=O)NCc5nccn5C)cn4)c3)c3ccccc23)cc1` [Example 288, 5-((4-(((4-(3-(3-(tert-butyl)-1-(p-tolyl)-1H-pyrazol-5-yl)ureido)naphthalen-1-yl)oxy)methyl)pyridin-2-yl)amino)-N-((1-methyl-1H-imidazol-2-yl)methyl)pyrazine-2-carboxamide], more than 13600 nM.
